Where two headings read alike, the source gives them in different places.
Assays:
[1] = Mouse hollow fiber assay, animal weight; format: in vivo, mice; conditions: 75, 100, 150 mg/kg twice daily
Protocol: The mouse hollow fiber assay was conducted using three tumor cell lines, OVCAR-3 (ovarian), MKN-1 (gastric), and HCC-1569 (breast), 1e7 OVCAR-3, 5e6 MKN-1, and 1e7 HCC-1569 cells were loaded into Hollow Fibers, placed in cell culture dishes containing RPMI-1640 with 20% FCS and 1% penicillin/streptomycin, and were equilibrated in an incubator at 37 C, 5% CO2 overnight. On Day 0, three fibers were implanted in two different compartments: subcutaneous and intraperitoneal of twenty-four female NMRI nude mice ages 4-5 weeks. […] Female NMRI nude mice were implanted both subcutaneously and intraperitoneally with HCC-1569, MKN1, and OVCAR3 tumor cell-loaded Hollow Fibers on Day 0. The number of animals alive on Day 0 (implantation) and on Day 16 (necropsy) in each group is shown in parentheses in the legend.

[2] = target: T1, CYP3A4 (testosterone as substrate) (Homo sapiens, UniProt P08684); test: CYP inhibition in human liver microsomes; format: in vitro ADME
T1 construct: human liver microsomes were incubated in the appropriate isoform-specific probe substrate; from tissue; host or cells: human liver microsomes
Protocol: (§1) The final DMSO content in the reaction mixtures was ≤0.2%. A selective inhibitor of each isoform was also screened as a positive control. Incubations were terminated by the addition of methanol. The quenched samples were incubated at 4° C. for 10 minutes and filtered by centrifugation for 1 minute at 500 rcf. The supernatants were removed, and the probe substrate metabolites were analyzed by LC-MS/MS.
(§2) The LC-MS/MS system consisted of an AB Sciex API5500 mass spectrometer coupled with an Agilent 1290 liquid chromatography system and an Agilent 1290 Infinity HTS chilled autosampler, controlled through Analyst software (AB Sciex). Samples were analyzed using the following solvent system and gradient: Acquity™ C18 Reverse Phase UPLC HSS T3 (1.8 μm) 2.1×50 mm column; 50° C. Column Temp.; 10 μL Injection Vol.; Mobile Phase A: Water+0.1% Formic Acid; Mobile Phase B: Acetonitrile+0.1% Formic Acid; Flow Rate: 0.6 mL/min.

CYP2C19 = target: T2, CYP2C19 (Homo sapiens, UniProt P33261); test: CYP inhibition in human liver microsomes; format: in vitro ADME
T2 construct: human liver microsomes were incubated in the appropriate isoform-specific probe substrate; from tissue; host or cells: human liver microsomes
Protocol: as §1, §2

[3] = target: T3, CYP3A4 (midazolam as substrate) (Homo sapiens, UniProt P08684); test: CYP inhibition in human liver microsomes; format: in vitro ADME
T3 construct: human liver microsomes were incubated in the appropriate isoform-specific probe substrate; from tissue; host or cells: human liver microsomes
Protocol: as §1, §2

CYP2C9 = target: T4, CYP2C9 (Homo sapiens, UniProt P11712); test: CYP inhibition in human liver microsomes; format: in vitro ADME
T4 construct: human liver microsomes were incubated in the appropriate isoform-specific probe substrate; from tissue; host or cells: human liver microsomes
Protocol: as §1, §2

CYP2C8 = target: T5, CYP2C8 (Homo sapiens, UniProt P10632); test: CYP inhibition in human liver microsomes; format: in vitro ADME
T5 construct: human liver microsomes were incubated in the appropriate isoform-specific probe substrate; from tissue; host or cells: human liver microsomes
Protocol: as §1, §2

CYP1A2 = target: T6, CYP1A2 (Homo sapiens, UniProt P05177); test: CYP inhibition in human liver microsomes; format: in vitro ADME
T6 construct: human liver microsomes were incubated in the appropriate isoform-specific probe substrate; from tissue; host or cells: human liver microsomes
Protocol: as §1, §2

CYP2B6 = target: T7, CYP2B6 (Homo sapiens, UniProt P20813); test: CYP inhibition in human liver microsomes; format: in vitro ADME
T7 construct: human liver microsomes were incubated in the appropriate isoform-specific probe substrate; from tissue; host or cells: human liver microsomes
Protocol: as §1, §2

H526 cells = test: CellTiter Glo cell proliferation assay (single agent and chemotherapy combination); format: cell-based, human
Protocol: Plates returned to incubator for six additional days. On day six post dosing, plates were removed and treated with CellTiter Glo reagent following manufacturer's specifications. Plates incubated 45 minutes at room temperature and run on a Biotek luminometer with 1 sec/well detection. Results were converted to Microsoft Excel and transferred to GraphPad Prism for analysis.
Cells were plated at 250 cells per well in white wall/clear bottom plates and incubated overnight. […] Plates returned to the incubator for six additional days. On day six post dosing, plates were removed and treated with CellTiter Glo reagent following manufacturer's specifications. Plates incubated 45 minutes at room temperature and run on a Biotek luminometer with 1 sec/well detection. Results were converted to Microsoft Excel and transferred to GraphPad Prism for analysis.
(§3) Dose curves ranged from 300 pM to 10 μM in triplicate and treatments lasted for 6 days. Plates were removed from incubator at each specified timepoint and treated with CellTiter-Glo (Promega, Inc) following manufacturer specifications. Plates were then read on CLARIOstar luminometer with 1 sec/well integration.
as §3, with “integration. Results were converted to Microsoft Excel and transferred to GraphPad Prism for Analysis.” for “integration.”

[4] = Nonclinical pharmacokinetics (IV and PO); conditions: in vivo
Protocol: Nonclinical PK studies were conducted for single dose of Compound I in rats, mice, and dogs, and for repeated doses of Compound I in rats and dogs. […] The relationship between dose level and systemic exposure was generally similar in male and female animals.

[5] = test system: pRb, cyclin E in FUOV-1 cells; test: Western blot pRb and cell cycle proteins; format: cell-based, human; conditions: 30-1000 nM, 24 hours
Protocol: An independent human ovarian carcinoma cell line, FUOV-1, was grown in DMEM/F12/1× Glutamax/10% fetal bovine serum and plated at 300,000 cells/well in Corning 6 well tissue culture treated plates. Cells were incubated at […] for 24 hours prior to addition of 2 replicates of 0.1% DMSO control and 1 replicate for each treatment. […] Cells were collected by washing each well twice with cold PBS, then scraping cells in the presence of 150 μL cold RIPA with protease and phosphatase inhibitors. Lysates were clarified by centrifugation at 14,000×g for 10 min at 4° C. and supernatants transferred to clean tubes. A BCA assay was performed to determine the protein concentration of each lysate. A total of 30 μg of protein was mixed with sample buffer and reducing agent before being run on a 4-12% SDS-PAGE. Protein was transferred to a nitrocellulose membrane and blocked with LI-COR blocking buffer for 1 hour. Membranes were incubated overnight in primary antibody at 4° C. Following 3 washes with TBS-T, membranes were incubated for 45 minutes in LI-COR secondary antibodies. Following 2 washes in TBS-T, and one TBS wash, membranes were scanned using a LI-COR OdysseyCLx. Image studio was used for image analysis.

T3 sequence (P08684 whole entry, canonical isoform): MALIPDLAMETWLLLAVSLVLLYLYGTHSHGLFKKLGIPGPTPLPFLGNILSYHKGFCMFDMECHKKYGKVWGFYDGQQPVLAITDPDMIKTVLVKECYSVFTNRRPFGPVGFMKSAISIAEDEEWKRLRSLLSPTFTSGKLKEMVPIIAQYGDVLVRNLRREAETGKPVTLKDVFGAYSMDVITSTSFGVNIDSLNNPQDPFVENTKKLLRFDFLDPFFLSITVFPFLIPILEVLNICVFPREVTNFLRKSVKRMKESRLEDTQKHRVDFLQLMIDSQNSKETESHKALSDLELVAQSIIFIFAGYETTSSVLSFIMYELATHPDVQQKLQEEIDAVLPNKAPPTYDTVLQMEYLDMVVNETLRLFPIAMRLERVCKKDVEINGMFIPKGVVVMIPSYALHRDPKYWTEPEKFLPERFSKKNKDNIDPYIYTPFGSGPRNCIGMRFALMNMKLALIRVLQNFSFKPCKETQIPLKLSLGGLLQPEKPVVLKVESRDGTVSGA
T5 sequence (P10632 whole entry, canonical isoform): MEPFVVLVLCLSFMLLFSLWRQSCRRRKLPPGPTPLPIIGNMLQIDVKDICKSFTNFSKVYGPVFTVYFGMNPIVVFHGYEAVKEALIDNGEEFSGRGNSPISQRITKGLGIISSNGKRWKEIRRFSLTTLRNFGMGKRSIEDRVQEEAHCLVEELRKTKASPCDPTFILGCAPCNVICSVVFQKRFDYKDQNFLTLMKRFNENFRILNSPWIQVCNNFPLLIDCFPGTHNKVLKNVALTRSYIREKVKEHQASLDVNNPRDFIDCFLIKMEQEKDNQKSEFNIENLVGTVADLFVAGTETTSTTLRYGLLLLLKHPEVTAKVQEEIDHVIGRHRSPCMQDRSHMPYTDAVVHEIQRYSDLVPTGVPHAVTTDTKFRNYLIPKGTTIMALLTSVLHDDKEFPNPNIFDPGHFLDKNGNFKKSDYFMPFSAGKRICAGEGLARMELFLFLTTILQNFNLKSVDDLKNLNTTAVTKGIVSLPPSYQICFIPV
T6 sequence (P05177 whole entry, canonical isoform): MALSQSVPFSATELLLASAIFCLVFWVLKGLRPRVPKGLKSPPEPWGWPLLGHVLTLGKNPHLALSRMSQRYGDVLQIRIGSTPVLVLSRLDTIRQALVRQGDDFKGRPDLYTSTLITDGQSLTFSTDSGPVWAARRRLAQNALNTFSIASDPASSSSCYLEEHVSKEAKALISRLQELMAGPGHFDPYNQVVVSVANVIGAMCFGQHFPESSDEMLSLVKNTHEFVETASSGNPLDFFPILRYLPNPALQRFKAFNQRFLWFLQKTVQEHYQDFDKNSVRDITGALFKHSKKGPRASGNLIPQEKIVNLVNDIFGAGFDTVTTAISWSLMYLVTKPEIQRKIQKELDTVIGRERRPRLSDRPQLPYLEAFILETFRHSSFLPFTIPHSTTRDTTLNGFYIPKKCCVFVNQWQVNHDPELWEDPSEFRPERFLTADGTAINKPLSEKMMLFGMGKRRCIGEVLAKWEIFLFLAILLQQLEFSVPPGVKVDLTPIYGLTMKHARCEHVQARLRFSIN
T2 sequence (P33261 whole entry, canonical isoform): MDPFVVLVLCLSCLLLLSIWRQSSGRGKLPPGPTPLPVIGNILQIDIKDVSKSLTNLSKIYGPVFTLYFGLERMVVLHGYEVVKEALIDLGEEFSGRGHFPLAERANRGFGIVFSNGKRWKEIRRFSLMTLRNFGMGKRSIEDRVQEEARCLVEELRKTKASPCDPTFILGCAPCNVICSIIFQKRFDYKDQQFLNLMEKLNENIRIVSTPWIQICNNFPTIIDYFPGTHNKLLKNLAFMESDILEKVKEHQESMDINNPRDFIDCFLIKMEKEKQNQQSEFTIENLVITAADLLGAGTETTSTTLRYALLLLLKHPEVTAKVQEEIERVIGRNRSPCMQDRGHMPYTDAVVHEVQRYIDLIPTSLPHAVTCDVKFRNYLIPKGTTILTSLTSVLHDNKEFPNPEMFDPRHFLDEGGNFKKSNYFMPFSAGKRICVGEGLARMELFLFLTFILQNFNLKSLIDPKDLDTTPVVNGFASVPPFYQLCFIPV
T7 sequence (P20813 whole entry, canonical isoform): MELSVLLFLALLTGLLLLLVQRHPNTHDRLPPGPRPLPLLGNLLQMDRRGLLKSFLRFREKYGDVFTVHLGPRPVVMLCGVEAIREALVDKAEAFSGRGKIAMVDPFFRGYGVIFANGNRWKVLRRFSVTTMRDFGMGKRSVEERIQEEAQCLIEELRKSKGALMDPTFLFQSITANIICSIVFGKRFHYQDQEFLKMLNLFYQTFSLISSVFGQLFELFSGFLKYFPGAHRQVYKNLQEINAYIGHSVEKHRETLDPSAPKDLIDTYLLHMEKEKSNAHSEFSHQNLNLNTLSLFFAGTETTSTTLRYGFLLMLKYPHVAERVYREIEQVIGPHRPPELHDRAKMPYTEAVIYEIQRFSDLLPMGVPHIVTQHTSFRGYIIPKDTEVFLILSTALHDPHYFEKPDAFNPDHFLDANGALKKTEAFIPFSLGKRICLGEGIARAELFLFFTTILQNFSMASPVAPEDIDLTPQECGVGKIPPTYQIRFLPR
T1 sequence (P08684 whole entry, canonical isoform): as the sequence (P08684 whole entry, canonical isoform) above
T4 sequence (P11712 whole entry, canonical isoform): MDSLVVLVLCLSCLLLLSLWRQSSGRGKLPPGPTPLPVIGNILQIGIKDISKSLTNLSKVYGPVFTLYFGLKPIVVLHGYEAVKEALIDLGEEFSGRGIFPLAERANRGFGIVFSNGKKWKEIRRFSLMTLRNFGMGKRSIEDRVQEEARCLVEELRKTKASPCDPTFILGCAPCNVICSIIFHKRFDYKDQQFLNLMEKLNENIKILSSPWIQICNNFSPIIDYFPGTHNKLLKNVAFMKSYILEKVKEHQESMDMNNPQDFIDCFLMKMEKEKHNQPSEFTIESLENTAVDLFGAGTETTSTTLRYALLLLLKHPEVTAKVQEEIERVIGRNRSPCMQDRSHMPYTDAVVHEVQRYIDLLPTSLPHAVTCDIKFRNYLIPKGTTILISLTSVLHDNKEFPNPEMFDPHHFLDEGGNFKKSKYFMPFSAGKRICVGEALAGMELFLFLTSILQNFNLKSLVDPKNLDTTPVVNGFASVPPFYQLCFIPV

Compound: NS(=O)(=O)c1ccc(Nc2ncc3cc4n(c3n2)C2(CCCCC2)C(=O)NN4)cc1 [Compound I]
- animal weight [1]: No animal weight changes were observed
- IC50 [2]: 9.59 µM
- IC50 (CYP2C19; pH 7.4, probe mephenytoin, CYP2C19, substrate Mephenytoin, human liver microsomes): 25 µM
- CYP2C19 inhibition (CYP2C19; up to 25 μM): Marginal to no inhibition
- IC50 ([3]; CYP3A4, substrate Midazolam, human liver microsomes): 24.3 µM
- CYP3A4 inhibition (midazolam as substrate) ([3]; up to 25 μM): Marginal to no inhibition
- IC50 (CYP2C9): 14.9 µM
- IC50 (CYP2C8; CYP2C8, substrate Amodiaquine, human liver microsomes): > 25 µM
- CYP2C8 inhibition (CYP2C8; up to 25 μM): Marginal to no inhibition
- IC50 (CYP1A2; CYP1A2, substrate Tacrine, human liver microsomes): > 25 µM
- CYP1A2 inhibition (CYP1A2; up to 25 μM): Marginal to no inhibition
- IC50 (CYP2B6; CYP2B6, substrate Bupropion, human liver microsomes): > 25 µM
- CYP2B6 inhibition (CYP2B6; up to 25 μM): Marginal to no inhibition
- cellular proliferation IC50, combined with camptothecin, versus single agents (H526 cells; 100 nM Compound I with camptothecin dose curve, 6 days): comparable
- IC50 (H526 cells; Homo sapiens, NCI-H526, 144 h, six days): 0.062 µM
- inhibition compared with palbociclib (H526 cells; six days): low nanomolar concentrations
- half-life ([4]; dog, dogs): ≤ 360 min
- Tmax ([4]; dog, iv, dogs, read-out: Tmax after IV dosing): ≤ 15 min
- Tmax ([4]; dog, po, dogs, read-out: Tmax after PO dosing): 72 to 102 min
- Tmax ([4]; mouse, iv, mice, read-out: Tmax after IV dosing): ≤ 15 min
- Tmax ([4]; mouse, po, mice, read-out: Tmax after PO dosing): 15 to 240 min
- Tmax ([4]; rat, iv, rats, read-out: Tmax after IV dosing): ≤ 15 min
- Tmax ([4]; rat, po, rats, read-out: Tmax after PO dosing): 15 to 30 min
- cyclin E amplification [5]: no cyclin E amplification was observed
- pRb levels [5]: decreases pRb levels in a dose-dependent manner
